Among the data in ChEMBL document CHEMBL1201862, “PubChem BioAssay data set” (2004) are EC50 and AC50 values, retold here.

Molecules are shown by their SMILES. Active and inactive are the calls of the source. For most assays here, no stated cut-off is given here; in the data, actives have a measured EC50 and inactives only a lower limit.

The subject of one assay is Streptococcus. Description: GAS UMAA2166 growth inhibition – luminescence, BacTiterGlo, counter-screen for streptokinase expression inhibitor project, dose response (AID 1915).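 Further: potency for reduction of bacterial viability or growth.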 The assay is classed as functional, organism-based. (In general: A counterscreen serves to expose hits that act by an unwanted route or on another target.)
The nature of assay [1]: Luminescence Cell-Based Dose Response HTS to Identify Inhibitors of 5'UTR Stem-Loop Driven Prion Protein mRNA Translation in H4 Neuroglioblastoma Cells. [Related pubchem assays: 1827 (Project Summary), 1813 (Primary HTS)]. It counts as functional.
Assay [2] concerns Streptococcus sp. 'group A'. Nature of the assay: Streptococcus pyogenes SK(-)GAS viability under kanamycin – luminescence, BacTiterGlo, confirmation, counter-screen for streptokinase expression inhibitor project, dose response (AID 1900). It counts as functional, organism-based.
Assay [3] in a line: Luminescence Cell-Based Dose Retest to Confirm Inhibitors of Cancer Stem Cells. [Related pubchem assays (depositor defined):AID2717, AID2721]. The assay is classed as functional, Homo sapiens.
The nature of assay [4]: luciferase reporter signal suppression in cells – H4 neuroglioma cells, luminescence, dose response (AID 1990). It counts as functional, cell-based.
Assay [5] in a line: alpha-synuclein stem-loop luciferase translation blockers – H4 neuroglioma cells, luminescence, confirmation (AID 1988). The assay is classed as functional, cell-based.
The target in assay [6] is T1, Heat shock factor protein 1 (Mus musculus, UniProt P38532).
T1 sequence (P38532 whole entry): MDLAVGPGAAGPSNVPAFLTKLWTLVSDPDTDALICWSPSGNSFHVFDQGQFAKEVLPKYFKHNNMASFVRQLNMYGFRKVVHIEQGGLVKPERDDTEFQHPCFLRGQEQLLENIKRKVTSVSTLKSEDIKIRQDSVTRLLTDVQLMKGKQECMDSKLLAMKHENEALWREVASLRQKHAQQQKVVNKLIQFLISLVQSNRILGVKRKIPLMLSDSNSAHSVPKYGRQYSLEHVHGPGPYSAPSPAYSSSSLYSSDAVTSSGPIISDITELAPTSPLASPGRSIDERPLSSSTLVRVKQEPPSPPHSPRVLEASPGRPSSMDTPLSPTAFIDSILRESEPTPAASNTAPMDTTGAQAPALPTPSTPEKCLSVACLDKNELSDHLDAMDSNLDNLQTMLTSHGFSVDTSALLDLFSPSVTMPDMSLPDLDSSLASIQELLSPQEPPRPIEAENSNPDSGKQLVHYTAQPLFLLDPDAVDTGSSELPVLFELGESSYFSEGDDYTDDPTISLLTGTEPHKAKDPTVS
Nature of the assay: enhancement of HSF1-driven luciferase signal – cell-based, NIH3T3, luminescence, dose retest, confirmation (AID 435004).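 Further: stress induced by proteasome inhibitor MG132 added 30 min after compound; luciferase reporter driven by HSF1 response element in NIH3T3 cells; actives raise luminescence as potentiators of the MG132 stress response.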 The assay is classed as functional.

The next assay relates to INS1. Description: INS-1E survival protection against cytokine death – cell-based, luminescence, retest, dose response (AID 449756).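 Further: cell death triggered by IL-1 beta plus TNF-alpha plus IFN-gamma mixture; protective hits raise ATP signal compared with cytokine alone wells.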 The following applies: Rattus norvegicus. The assay is classed as functional.
The target in assay [7] is T2, Replicative DNA helicase DnaB (Mycobacterium tuberculosis, UniProt P9WMR3).
T2 sequence (P9WMR3 whole entry): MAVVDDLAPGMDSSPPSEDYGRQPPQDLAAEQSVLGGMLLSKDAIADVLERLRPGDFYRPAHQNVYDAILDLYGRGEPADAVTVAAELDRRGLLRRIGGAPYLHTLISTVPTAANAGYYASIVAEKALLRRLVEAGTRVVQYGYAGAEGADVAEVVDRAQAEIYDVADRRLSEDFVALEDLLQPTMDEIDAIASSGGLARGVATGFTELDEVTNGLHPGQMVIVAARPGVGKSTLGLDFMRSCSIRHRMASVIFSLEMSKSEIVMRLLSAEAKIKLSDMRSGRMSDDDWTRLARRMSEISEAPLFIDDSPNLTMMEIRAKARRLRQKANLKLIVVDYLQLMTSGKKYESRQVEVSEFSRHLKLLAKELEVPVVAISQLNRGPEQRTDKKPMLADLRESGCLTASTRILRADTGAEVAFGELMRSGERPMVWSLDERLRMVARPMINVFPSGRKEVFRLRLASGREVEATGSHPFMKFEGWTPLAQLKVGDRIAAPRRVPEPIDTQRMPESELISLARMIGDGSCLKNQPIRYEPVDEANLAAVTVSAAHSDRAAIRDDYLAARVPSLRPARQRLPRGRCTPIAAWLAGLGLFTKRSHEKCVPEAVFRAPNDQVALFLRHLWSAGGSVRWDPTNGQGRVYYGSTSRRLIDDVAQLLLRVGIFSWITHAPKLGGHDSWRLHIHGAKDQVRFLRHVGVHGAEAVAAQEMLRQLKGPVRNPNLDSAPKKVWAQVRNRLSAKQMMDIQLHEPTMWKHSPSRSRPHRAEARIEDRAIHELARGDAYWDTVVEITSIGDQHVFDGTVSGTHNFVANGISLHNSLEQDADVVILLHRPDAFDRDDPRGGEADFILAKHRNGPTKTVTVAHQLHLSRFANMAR
Description: DnaB intein splicing inhibitors, dose response, biochemical, cell-free fluorescence (AID 449749). The assay is classed as functional.

A further assay has as its target T3, Protein RecA (Mycobacterium tuberculosis, UniProt P9WHJ3).
T3 sequence (P9WHJ3 whole entry): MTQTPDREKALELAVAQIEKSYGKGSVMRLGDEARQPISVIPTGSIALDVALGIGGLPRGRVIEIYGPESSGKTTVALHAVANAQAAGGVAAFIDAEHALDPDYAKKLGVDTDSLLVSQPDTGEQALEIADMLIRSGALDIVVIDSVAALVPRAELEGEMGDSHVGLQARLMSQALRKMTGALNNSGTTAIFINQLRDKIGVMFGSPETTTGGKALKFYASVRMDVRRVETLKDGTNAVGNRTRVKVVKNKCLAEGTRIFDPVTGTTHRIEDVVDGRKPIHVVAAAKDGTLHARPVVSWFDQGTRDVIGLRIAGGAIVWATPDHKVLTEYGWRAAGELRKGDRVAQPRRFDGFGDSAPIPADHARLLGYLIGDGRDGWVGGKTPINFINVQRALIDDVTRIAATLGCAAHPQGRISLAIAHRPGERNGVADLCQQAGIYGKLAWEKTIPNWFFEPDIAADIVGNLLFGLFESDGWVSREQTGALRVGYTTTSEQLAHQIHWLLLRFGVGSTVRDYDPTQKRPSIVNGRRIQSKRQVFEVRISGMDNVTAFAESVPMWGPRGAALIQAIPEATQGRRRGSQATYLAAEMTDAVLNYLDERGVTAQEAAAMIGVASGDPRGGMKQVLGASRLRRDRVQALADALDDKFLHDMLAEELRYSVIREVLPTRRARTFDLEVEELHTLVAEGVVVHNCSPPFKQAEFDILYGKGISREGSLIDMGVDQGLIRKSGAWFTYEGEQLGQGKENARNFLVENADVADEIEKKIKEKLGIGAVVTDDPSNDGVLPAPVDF
Nature of the assay: Fluorescence Cell-Free Homogeneous Dose Retest to Identify Inhibitors of RecA-Intein Splicing Activity. [Related pubchem assays (depositor defined):AID2097, AID2223, AID489010, AID492950]. The assay is classed as functional.

In assay [8] the target is T4, RNA-binding protein pos-1 (Caenorhabditis elegans, UniProt G5EF15).
T4 sequence (G5EF15 whole entry): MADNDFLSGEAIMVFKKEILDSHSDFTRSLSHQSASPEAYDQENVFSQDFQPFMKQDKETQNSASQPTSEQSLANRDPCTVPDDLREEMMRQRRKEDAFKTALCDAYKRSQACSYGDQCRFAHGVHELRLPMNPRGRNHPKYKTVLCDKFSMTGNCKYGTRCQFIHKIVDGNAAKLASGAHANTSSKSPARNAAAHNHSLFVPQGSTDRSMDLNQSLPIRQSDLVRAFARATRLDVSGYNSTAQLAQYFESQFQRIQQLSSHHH
Description: disruptors of C. elegans POS-1 RNA interaction – biochemical, fluorescence polarization, dose response (AID 1964).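 Further: purified POS-1 fused to maltose binding protein made in E. coli; potency of compounds blocking POS-1 binding to fluorescent RNA.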 On the technique in general: Fluorescence polarisation rises when a labelled molecule tumbles more slowly, as on binding a larger partner.

A further assay addresses T5, Streptokinase A (Streptococcus pyogenes serotype M1, UniProt P10520).
T5 sequence (P10520 whole entry): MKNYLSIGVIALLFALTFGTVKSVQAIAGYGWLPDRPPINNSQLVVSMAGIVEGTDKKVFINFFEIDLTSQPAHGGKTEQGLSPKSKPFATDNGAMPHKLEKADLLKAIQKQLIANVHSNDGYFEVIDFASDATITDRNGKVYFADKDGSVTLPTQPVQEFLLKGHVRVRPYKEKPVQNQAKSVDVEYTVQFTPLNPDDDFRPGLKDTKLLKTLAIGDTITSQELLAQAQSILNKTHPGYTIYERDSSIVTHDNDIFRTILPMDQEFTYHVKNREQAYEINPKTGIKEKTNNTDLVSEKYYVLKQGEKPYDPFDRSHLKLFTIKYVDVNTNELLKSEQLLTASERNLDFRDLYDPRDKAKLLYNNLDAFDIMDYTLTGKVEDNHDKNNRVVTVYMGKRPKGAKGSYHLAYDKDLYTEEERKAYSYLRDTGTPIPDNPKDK
Nature of the assay: viability-normalized secreted streptokinase activity reduction – plasminogen activation absorbance, OD405, dose response (AID 1914).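 Further: secreted streptokinase activity via plasminogen activation per viability signal from cell pellet.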 It counts as functional, Streptococcus pyogenes M1 GAS.

For the next assay, the target named is T6, Cytochrome P450 1A2 (Homo sapiens, UniProt P05177).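 Further: PubChem cytochrome P450 panel assay, CYP1A2 panel member.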
T6 sequence (P05177 whole entry): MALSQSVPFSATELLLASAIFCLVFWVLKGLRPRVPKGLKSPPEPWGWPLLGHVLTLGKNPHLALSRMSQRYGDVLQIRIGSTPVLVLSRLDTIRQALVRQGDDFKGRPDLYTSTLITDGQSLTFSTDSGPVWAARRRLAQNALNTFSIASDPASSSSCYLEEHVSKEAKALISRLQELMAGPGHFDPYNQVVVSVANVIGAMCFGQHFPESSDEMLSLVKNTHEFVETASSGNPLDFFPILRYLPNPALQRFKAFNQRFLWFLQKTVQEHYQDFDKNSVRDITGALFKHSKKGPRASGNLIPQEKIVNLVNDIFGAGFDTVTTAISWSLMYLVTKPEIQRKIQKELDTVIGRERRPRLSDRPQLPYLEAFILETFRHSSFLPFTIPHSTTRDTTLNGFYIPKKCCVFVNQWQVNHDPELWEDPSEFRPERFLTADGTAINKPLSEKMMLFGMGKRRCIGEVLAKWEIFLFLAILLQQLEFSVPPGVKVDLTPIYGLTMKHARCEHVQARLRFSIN

Take `Cc1cn(-c2cc(C(=O)Nc3ccc(C)c(NC(=O)C(=O)c4c[nH]c5ccccc45)c3)cc(C(F)(F)F)c2)cn1`: the figures for the EC50 (in the assay on Streptococcus; in [1]; in assay [2]) were 3.39 µM (active), 23 µM (active) and 2.38 µM (active), respectively. Also, the AC50 (as a rule, the midpoint of the concentration-response curve, whichever way the signal moves) in assay [3] (Homo sapiens) is 2.18 µM (active).

Consider `CC1CCc2nc(NCCO)nc(C(F)(F)F)c2C1` (stereo unspecified), for which the EC50 (in general, the concentration needed to bring the measured effect to its halfway point) is 12.5 µM (active) in assay [4], 26.1 µM (active) in assay [1] and > 120 µM (not active) in assay [5]. Consider `COC(=O)C1CCN(C(=O)COC(=O)Cc2c[nH]c3ccccc23)CC1`, for which the EC50 in assay [4], in [1] and in [5] was > 120 µM (not active) each time.

With `O=C(Cn1cnc2c(cnn2-c2ccc(Cl)cc2)c1=O)N1CCN(c2ccccc2)CC1`, the EC50 in assay [4] was 15.8 µM (active); in assay [1], 12 µM (active); in [5], 18.4 µM (active).

Regarding `CCc1cc2c(SCC#N)ncnc2s1`, the EC50 in assay [6] is > 260 µM (inactive). Regarding `O=[N+]([O-])c1ccc(OCc2cn([C@@H](CO)c3ccccc3)nn2)c(Br)c1`, the EC50 in assay [4], in [1] and in assay [5] was > 120 µM (not active) in each case. With `O=C(Nc1ccc(Cl)cc1)Nc1csc([N+](=O)[O-])c1`, the AC50 with INS1 was 7.03 µM (active). In assay [6], the EC50 is 31.4 µM (active). With `CCCc1nc2oc3cc(OC)ccc3c(=O)c2c(=O)n1CCc1ccccc1`, in assay [6], the EC50 was > 260 µM (inactive).

Take `CCN(CC)CCOc1ccc(/C(=C(/Cl)c2ccccc2)c2ccccc2)cc1` [CLOMIPHENE]: the AC50 was 4.34 µM (active) in assay [7] and 1.35 µM (active) in assay [3]. Besides, the EC50 at Protein RecA was 12.4 µM (active); in assay [6], 129 µM (active). Take `C=CCNC(=O)c1c(N)n(Cc2ccco2)c2nc3ccccc3nc12`: in assay [6], the EC50 was 43.4 µM (active). Consider `O=C1c2ccccc2C(=O)N1CCC(=O)N1CCCc2ccccc21`, for which the EC50 in assay [6] is > 260 µM (inactive). Still for that read-out and setting: next, `O=C(CN1C(=O)NC2(CCCC2)C1=O)NCCN1C(=O)S/C(=C\c2ccccc2F)C1=O`: > 260 µM (inactive); `O=c1c2ccccc2[nH]c(=S)n1CCC1=CCCCC1`: > 260 µM (inactive). Consider `CCN(CC)c1ccc(N/C=C2/C(=O)NC(=O)N(Cc3ccccc3)C2=O)cc1`, for which the EC50 in assay [8] is > 300 µM (not active). With `Cc1ccc(CSc2nc3ccccc3c(=O)n2CCCC(=O)NCc2ccco2)cc1`, the EC50 in assay [6] was > 260 µM (inactive).

For `CCCOC(=O)c1ccc(Oc2c[nH]nc2-c2ccc(O)cc2O)cc1`, the EC50 is > 150 µM (not active) with Streptococcus, > 150 µM (not active) at Streptokinase A, > 150 µM (not active) in assay [2] and > 260 µM (inactive) in assay [6]. Consider `Cc1nc(S(=O)(=O)c2ccc(Cl)cc2)c(NCc2ccccc2)o1`, for which the EC50 in assay [6] was > 260 µM (inactive). The same measure, in the same setting: in the case of `CCC(NC(=O)/C(=C\c1ccc2c(c1)OCO2)NC(C)=O)C(=O)O` (stereo unspecified) it was > 260 µM (inactive). Same read-out and setting: in the case of `COc1ccc2[nH]c(C)c(CCNc3ccc(C(F)(F)F)cc3[N+](=O)[O-])c2c1` it was > 260 µM (inactive); in that of `Cc1ccc(S(=O)(=O)c2c(C)cc(C)nc2N2CCCCC2)cc1`, > 260 µM (inactive). Turning to `CC(Oc1ccc(Cl)cc1)C(=O)/C=C/N(C)C` (stereo unspecified), the EC50 in [6] is > 260 µM (inactive). In addition, on Cytochrome P450 1A2, the AC50 was 15.8 µM (inconclusive). For the compound `FC(F)(F)c1ccc(Sc2nnc(-c3cccs3)n2CC2CCCO2)nc1` (stereo unspecified), the EC50 in [6] was > 260 µM (inactive).
